pIC50: −log10 of the molar value. Read-outs that look alike come from different tables or passages of the source.
How the values were obtained:
NDM-1 = NDM-1 (Klebsiella pneumoniae, UniProt C7C422); assay: biochemical; format: biochemical; conditions: read-out: NDM-1 IC50
IMP-1 = IMP-1 (Serratia marcescens, UniProt P52699); assay: biochemical; format: biochemical; conditions: read-out: IMP-1 IC50
VIM-1 = VIM-1 (Pseudomonas aeruginosa (strain ATCC 15692 / DSM 22644 / CIP 104116 / JCM 14847 / LMG 12228 / 1C / PRS 101 / PAO1), UniProt A0A0F7KYQ8); assay: Enzyme activity: determination of IC50, fluorescence assay with CCF2-FA substrate (VIM-1); format: biochemical
[1] = test system: Escherichia coli expressing NDM-1 (CLB30016); assay: Antibiotic potentiation activity: synergistic concentration (MITC95) with imipenem, OD600 growth; format: cell-based; conditions: for Escherichia coli expressing NDM-1 (CLB 30016) MITC95: concentration giving 95% inhibition of bacterial growth
Outline: (§1)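 Clinical MBL-producing strains (E. coli NDM-1, S. marcescens IMP-1, K. pneumoniae VIM-1) from overnight plates were diluted 1:100 into 1.1×CAMHB. Compound was tested with imipenem at 4 μg/ml (optionally 1 μg/ml) or without it. After 22–24 h at 35 °C, growth was read as OD600.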

[2] = test system: Klebsiella pneumoniae expressing VIM-1 (IHMA599644); assay: as above; format: cell-based; conditions: for Klebsiella pneumoniae expressing VIM-1 (IHMA 599644) MITC95: concentration giving 95% inhibition of bacterial growth
Outline: as §1

[3] = test system: Serratia marcescens expressing IMP-1 (CL5741); assay: as above; format: cell-based; conditions: for Serratia marcescens expressing IMP-1 (CL5741) MITC95: concentration giving 95% inhibition of bacterial growth
Outline: as §1

[4] = NDM-1 enzyme, CCF2-FA substrate
[5] = IMP-1 enzyme, CCF2-FA substrate
[6] = VIM-1 enzyme, CCF2-FA substrate, read-out: VIM-1 IC50
[7] = (CLB30016, NDM-1), 95% growth inhibition
[8] = Klebsiella pneumoniae IHMA599644 (VIM-1), 95% growth inhibition
[9] = Serratia marcescens CL5741 (IMP-1), 95% growth inhibition
[10] = NDM-1 enzyme, CCF2-FA fluorescence assay
[11] = IMP-1 enzyme, CCF2-FA fluorescence assay
[12] = VIM-1 enzyme, CCF2-FA fluorescence assay, read-out: VIM-1 IC50
[13] = Escherichia coli expressing NDM-1 (CLB30016), 95% growth inhibition
[14] = Klebsiella pneumoniae expressing VIM-1 (IHMA599644), 95% growth inhibition
[15] = Serratia marcescens expressing IMP-1 (CL5741), 95% growth inhibition
[16] = fluorescence assay with CCF2-FA substrate
[17] = fluorescence assay with CCF2-FA substrate, read-out: VIM-1 IC50
[18] = CLB30016 (NDM-1), 95% inhibition of bacterial growth
[19] = IHMA599644 (VIM-1), 95% inhibition of bacterial growth
[20] = CL5741 (IMP-1), 95% inhibition of bacterial growth
[21] = VIM-1 IC50, VIM-1 enzyme, CCF2-FA substrate

IMP-1, sequence (P52699 whole entry, looked up): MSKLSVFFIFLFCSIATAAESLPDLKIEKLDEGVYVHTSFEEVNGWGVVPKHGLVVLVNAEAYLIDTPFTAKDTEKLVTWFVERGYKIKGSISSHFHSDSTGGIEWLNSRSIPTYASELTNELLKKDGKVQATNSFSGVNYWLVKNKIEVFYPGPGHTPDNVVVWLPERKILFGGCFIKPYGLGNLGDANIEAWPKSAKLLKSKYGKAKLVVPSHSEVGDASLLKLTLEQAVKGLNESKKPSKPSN
NDM-1, sequence (C7C422 whole entry, looked up, species assumed): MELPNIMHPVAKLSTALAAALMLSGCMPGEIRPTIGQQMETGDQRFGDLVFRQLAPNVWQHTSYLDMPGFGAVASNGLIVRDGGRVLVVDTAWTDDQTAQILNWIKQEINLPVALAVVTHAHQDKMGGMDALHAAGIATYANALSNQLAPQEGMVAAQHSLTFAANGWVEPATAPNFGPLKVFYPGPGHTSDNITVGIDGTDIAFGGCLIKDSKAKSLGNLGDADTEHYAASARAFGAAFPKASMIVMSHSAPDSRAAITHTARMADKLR

Compound: Nc1ncc2cccc(-c3ccc(C(F)(F)F)c(S(N)(=O)=O)c3-c3nn[nH]n3)c2n1 [Example 558, 3-(2-aminoquinazolin-8-yl)-2-(2H-tetrazol-5-yl)-6-(trifluoromethyl)benzenesulfonamide]
- pIC50 (NDM-1; [4]): 9.84
- pIC50 (IMP-1; [5]): 8.71
- pIC50 (VIM-1; [6]): 9.75
- Escherichia coli MITC95 [1, 7]: 6.25 µM
- Klebsiella pneumoniae MITC95 [2, 8]: 6.25 µM
- Serratia marcescens MITC95 [3, 9]: 6.25 µM

Compound: NS(=O)(=O)c1c(C(F)(F)F)ccc(C2CCCCC2)c1-c1nnn[nH]1 [Example 491, 3-cyclohexyl-2-(1H-tetrazol-5-yl)-6-(trifluoromethyl)benzenesulfonamide]
- pIC50 (NDM-1; [4]): 9.36
- pIC50 (IMP-1; [5]): 8.96
- pIC50 (VIM-1; [6]): 9.30
- Escherichia coli MITC95 [1, 7]: 0.6406 µM
- Klebsiella pneumoniae MITC95 [2, 8]: 3.792 µM
- Serratia marcescens MITC95 [3, 9]: 0.0625 µM

Compound: Nc1nc2c(-c3ccc(CCCCCO)c(S(N)(=O)=O)c3-c3nn[nH]n3)cccc2s1 [Example 534, 3-(2-Aminobenzo[d]thiazol-4-yl)-6-(5-hydroxypentyl)-2-(2H-tetrazol-5-yl)benzenesulfonamide]
- pIC50 (NDM-1; [4]): 9.35
- pIC50 (IMP-1; [5]): 8.02
- pIC50 (VIM-1; [6]): 9.07
- Escherichia coli MITC95 [1, 7]: 6.25 µM
- Klebsiella pneumoniae MITC95 [2, 8]: 12.5 µM
- Serratia marcescens MITC95 [3, 9]: 25 µM

Compound: NS(=O)(=O)c1c(C(F)(F)F)ccc(CC[C@H]2CC[C@@H](N)CC2)c1-c1nn[nH]n1 [Example 432, 3-(2-((1s,4r)-4-aminocyclohexyl)ethyl)-2-(2H-tetrazol-5-yl)-6-(trifluoromethyl)benzenesulfonamide]
- pIC50 (NDM-1; [10]): 7.32
- pIC50 (IMP-1; [11]): 7.93
- pIC50 (VIM-1; [12]): 8.33
- Escherichia coli MITC95 [1, 13]: 6.25 µM
- Klebsiella pneumoniae MITC95 [2, 14]: 18.75 µM
- Serratia marcescens MITC95 [3, 15]: 0.3906 µM

Compound: NS(=O)(=O)c1c(Cc2ccccc2)ccc(-c2ccc(C3CCNCC3)cc2)c1-c1nnn[nH]1 [Example 261]
- pIC50 (NDM-1; [10]): 8.18
- pIC50 (IMP-1; [11]): 8.77
- pIC50 (VIM-1; [12]): 7.99
- Escherichia coli MITC95 [1, 13]: 6.25 µM
- Klebsiella pneumoniae MITC95 [2, 14]: 100 µM
- Serratia marcescens MITC95 [3, 15]: 1.563 µM

Compound: Nc1ccc(CCc2cccc(S(N)(=O)=O)c2-c2nn[nH]n2)cn1 [Example 427, 3-(2-(6-aminopyridin-3-yl)ethyl)-2-(2H-tetrazol-5-yl)benzenesulfonamide]
- pIC50 (NDM-1; [10]): 7.53
- pIC50 (IMP-1; [11]): 6.96
- pIC50 (VIM-1; [12]): 6.35
- Escherichia coli MITC95 [1, 13]: 0.25 µM
- Klebsiella pneumoniae MITC95 [2, 14]: 75 µM
- Serratia marcescens MITC95 [3, 15]: 4.688 µM

Compound: NC1CCC(c2ccc(CCC3CCNCC3)c(S(N)(=O)=O)c2-c2nn[nH]n2)CC1 (stereo not drawn) [Example 838, 3-(4-aminocyclohexyl)-6-[2-(4-piperidyl)ethyl]-2-(2H-tetrazol-5-yl)benzenesulfonamide]
- pIC50 (NDM-1; [16]): 7.17
- pIC50 (IMP-1; [16]): 5.77
- pIC50 (VIM-1; [17]): 7.21
- Escherichia coli MITC95 [1, 18]: 3.125 µM
- Klebsiella pneumoniae MITC95 [2, 19]: 6.25 µM
- Serratia marcescens MITC95 [3, 20]: 12.5 µM

Compound: NCCN1CCC(Cc2ccc(-c3ccc(C4CNC4)cc3)c(-c3nn[nH]n3)c2S(N)(=O)=O)CC1 [Example 606, 6-[[1-(2-aminoethyl)-4-piperidyl]methyl]-3-[4-(azetidin-3-yl)phenyl]-2-(2H-tetrazol-5-yl)benzenesulfonamide]
- pIC50 (NDM-1; [4]): 7.75
- pIC50 (IMP-1; [5]): 7.29
- pIC50 (VIM-1; [21]): 8.95
- Escherichia coli MITC95 [1, 7]: 0.7813 µM
- Klebsiella pneumoniae MITC95 [2, 8]: 1.563 µM
- Serratia marcescens MITC95 [3, 9]: 3.125 µM

Compound: NCC1CCC(N[C@H]2CC[C@H](c3ccc(C(F)(F)F)c(S(N)(=O)=O)c3-c3nnn[nH]3)CC2)CC1 (stereo partly drawn) [Example 704, 3-(4-{[4-(aminomethyl)cyclohexyl]amino}cyclohexyl)-2-(1H-tetrazol-5-yl)-6-(trifluoromethyl)benzene sulfonamide]
- pIC50 (NDM-1; [4]): 7.83
- pIC50 (IMP-1; [5]): 7.29
- pIC50 (VIM-1; [6]): 8.14
- Escherichia coli MITC95 [1, 7]: 1.563 µM
- Klebsiella pneumoniae MITC95 [2, 8]: 6.25 µM
- Serratia marcescens MITC95 [3, 9]: 6.25 µM

Compound: NS(=O)(=O)c1c(C(F)(F)F)ccc(-c2ccc(C3CCN(CC4CCNCC4)CC3)cc2)c1-c1nnn[nH]1 [Example 668, 4′-[1-(piperidin-4-ylmethyl)piperidin-4-yl]-2-(1H-tetrazol-5-yl)-4-(trifluoromethyl)biphenyl-3-sulfonamide]
- pIC50 (NDM-1; [4]): 8.03
- pIC50 (IMP-1; [5]): 8.55
- pIC50 (VIM-1; [6]): 8.15
- Escherichia coli MITC95 [1, 7]: 1.563 µM
- Klebsiella pneumoniae MITC95 [2, 8]: 50 µM
- Serratia marcescens MITC95 [3, 9]: 3.125 µM

Compound: NC[C@H]1CC[C@H](Cc2ccc(-c3ccc(C4CNC4)cc3)c(-c3nnn[nH]3)c2S(N)(=O)=O)CC1 [Example 601, 4-(((1r,4r)-4-(aminomethyl)cyclohexyl)methyl)-4′-(azetidin-3-yl)-2-(1H-tetrazol-5-yl)-[1,1′-biphenyl]-3-sulfonamide]
- pIC50 (NDM-1; [4]): 8.78
- pIC50 (IMP-1; [5]): 7.88
- pIC50 (VIM-1; [21]): 9.23
- Escherichia coli MITC95 [1, 7]: 1.563 µM
- Klebsiella pneumoniae MITC95 [2, 8]: 1.563 µM
- Serratia marcescens MITC95 [3, 9]: 3.125 µM

Compound: Nc1ccc2cccc(-c3ccc(C(F)(F)F)c(S(N)(=O)=O)c3-c3nn[nH]n3)c2n1 [Example 554, 3-(2-amino-8-quinolyl)-2-(2H-tetrazol-5-yl)-6-(trifluoromethyl)benzenesulfonamide]
- pIC50 (NDM-1; [4]): 9.94
- pIC50 (IMP-1; [5]): 9.09
- pIC50 (VIM-1; [6]): 9.44
- Escherichia coli MITC95 [1, 7]: 3.125 µM
- Klebsiella pneumoniae MITC95 [2, 8]: 3.125 µM
- Serratia marcescens MITC95 [3, 9]: 1.563 µM

Compound: NS(=O)(=O)c1c(C(F)(F)F)ccc([C@H]2CC[C@H](NC3CCNC3)CC2)c1-c1nnn[nH]1 (stereo partly drawn) [Example 696, 3-[4-(pyrrolidin-3-ylamino)cyclohexyl]-2-(1H-tetrazol-5-yl)-6-(trifluoromethyl)benzene sulfonamide]
- pIC50 (NDM-1; [4]): 8.96
- pIC50 (IMP-1; [5]): 8.28
- pIC50 (VIM-1; [6]): 8.62
- Escherichia coli MITC95 [1, 7]: 0.3906 µM
- Klebsiella pneumoniae MITC95 [2, 8]: 3.125 µM
- Serratia marcescens MITC95 [3, 9]: 1.563 µM

Compound: NS(=O)(=O)c1cccc(C2CCn3cncc3C2)c1-c1nn[nH]n1 (stereo not drawn) [Example 178, 3-(5,6,7,8-tetrahydroimidazo[1,5-a]pyridin-7-yl)-2-(2H-tetrazol-5-yl)benzenesulfonamide]
- pIC50 (NDM-1; [16]): 7.55
- pIC50 (IMP-1; [16]): 5.99
- pIC50 (VIM-1; VIM-1 IC50, fluorescence assay with CCF2-FA substrate): 7.18
- Escherichia coli expressing NDM-1 (CLB 30016) MITC95 [1]: 0.25 µM
- Klebsiella pneumoniae expressing VIM-1 (IHMA 599644) MITC95 [2]: 9.375 µM
- Serratia marcescens expressing IMP-1 (CL5741) MITC95 [3]: 12.5 µM

Compound: NC1CCC(N2CC(c3ccc(-c4ccc(C(F)(F)F)c(S(N)(=O)=O)c4-c4nnn[nH]4)cc3)C2)C1 (stereo not drawn) [Example 808, 4′-[1-(3-aminocyclopentyl)azetidin-3-yl]-2-(1H-tetrazol-5-yl)-4-(trifluoromethyl)biphenyl-3-sulfonamide]
- pIC50 (NDM-1; [16]): 8.45
- pIC50 (IMP-1; [16]): 8.07
- pIC50 (VIM-1; [17]): 7.60
- Escherichia coli MITC95 [1, 18]: 1.563 µM
- Klebsiella pneumoniae MITC95 [2, 19]: 25 µM
- Serratia marcescens MITC95 [3, 20]: 3.125 µM

Compound: NS(=O)(=O)c1cccc(C2CC2)c1-c1nnn[nH]1 [Example 157, 3-cyclopropyl-2-(1H-tetrazol-5-yl)benzenesulfonamide]
- pIC50 (NDM-1; [16]): 7.54
- pIC50 (IMP-1; [16]): 6.25
- pIC50 (VIM-1; [17]): 5.98
- Escherichia coli expressing NDM-1 (CLB 30016) MITC95 [1]: 0.3906 µM
- Klebsiella pneumoniae expressing VIM-1 (IHMA 599644) MITC95 [2]: 50 µM
- Serratia marcescens expressing IMP-1 (CL5741) MITC95 [3]: 6.25 µM

Compound: NCCN1CC(c2ccc(-c3ccc(C(F)(F)F)c(S(N)(=O)=O)c3-c3nnn[nH]3)cc2)C1 [Example 812, 4′-[1-(2-aminoethyl)azetidin-3-yl]-2-(1H-tetrazol-5-yl)-4-(trifluoromethyl)biphenyl-3-sulfonamide]
- pIC50 (NDM-1; [16]): 8.57
- pIC50 (IMP-1; [16]): 8.24
- pIC50 (VIM-1; [17]): 8.41
- Escherichia coli MITC95 [1, 18]: 1.563 µM
- Klebsiella pneumoniae MITC95 [2, 19]: 12.5 µM
- Serratia marcescens MITC95 [3, 20]: 6.25 µM

Compound: Nc1ccc(-c2ccc(C[C@H]3CC[C@H](N)CC3)c(S(N)(=O)=O)c2-c2nnn[nH]2)cn1 [Example 575, 6-(((1r,4r)-4-aminocyclohexyl)methyl)-3-(6-aminopyridin-3-yl)-2-(1H-tetrazol-5-yl)benzenesulfonamide]
- pIC50 (NDM-1; [4]): 8.50
- pIC50 (IMP-1; [5]): 7.23
- pIC50 (VIM-1; [6]): 8.16
- Escherichia coli MITC95 [1, 7]: 0.3906 µM
- Klebsiella pneumoniae MITC95 [2, 8]: 6.25 µM
- Serratia marcescens MITC95 [3, 9]: 3.125 µM

Compound: NS(=O)(=O)c1c(CC[C@H]2CC[C@@H](N)CC2)ccc(-c2ccc(C3CNC3)cc2)c1-c1nnn[nH]1 [Example 600, 4-(2-((1s,4r)-4-aminocyclohexyl)ethyl)-4′-(azetidin-3-yl)-2-(1H-tetrazol-5-yl)-[1,1′-biphenyl]-3-sulfonamide]
- pIC50 (NDM-1; [4]): 8.59
- pIC50 (IMP-1; [5]): 7.36
- pIC50 (VIM-1; [21]): 9.06
- Escherichia coli MITC95 [1, 7]: 1.563 µM
- Klebsiella pneumoniae MITC95 [2, 8]: 3.125 µM
- Serratia marcescens MITC95 [3, 9]: 6.25 µM
